# From ChEMBL document CHEMBL4842305, “Bifunctional Doscadenamides Activate Quorum Sensing in Gram-Negative Bacteria and Synergize with TRAIL to Induce Apoptosis in Cancer Cells” (2021)
# The source made the active and inactive calls. The calls are words filed in the database; no cut-off is given here.
# Experiments:
# [1] = Activation of quorum sensing system in Pseudomonas aeruginosa JP1 assessed as increase in pyocyanin production at 100 uM measured after 6 hrs relative to control; conditions: for fold change (FC): filed as activator
# [2] = tested on: MDA-MB-231; assay: Synergistic anticancer activity against human MDA-MB-231 cells assessed as reduction in cell viability at 25 uM pretreated for 3 hrs followed by TRAIL stimulation measured after 24 hrs; format: functional; set-up: unit not given here; conditions: time 27 hrs
# [3] = tested on: MDA-MB-231; assay: Synergistic anticancer activity against human MDA-MB-231 cells assessed as reduction in cell viability at 50 uM pretreated for 3 hrs followed by TRAIL stimulation measured after 24 hrs; format: functional; set-up: unit not given here; conditions: time 27 hrs
# [4] = tested on: Vibrio harveyi; assay: Activation of quorum sensing in Vibrio harveyi upto 100 uM after 7 hrs by luminescence method; conditions: filed as activator, dose microM <=100, time 7.0 hrs
# [5] = tested on: Vibrio harveyi; assay: Activation of quorum sensing in Vibrio harveyi from 10 to 200 uM after 7 hrs by luminescence method; conditions: filed as activator, dose 10-200 µM
# [6] = tested on: MDA-MB-231; assay: Induction of apoptosis in human MDA-MB-231 cells assessed as increase in cleaved PARP level at 50 uM by Western blot analysis; format: functional, cell-based
# [7] = biological target: T1, Transcriptional activator protein LasR (Pseudomonas aeruginosa (strain ATCC 15692 / PAO1 / 1C / PRS 101 / LMG12228)) (UniProt P25084); assay: Binding affinity to wild type Pseudomonas aeruginosa LasR expressed in Escherichia coli at 100 uM measured after 6 hrs by luminescence assay; conditions: filed as activator
# T1 sequence (whole entry): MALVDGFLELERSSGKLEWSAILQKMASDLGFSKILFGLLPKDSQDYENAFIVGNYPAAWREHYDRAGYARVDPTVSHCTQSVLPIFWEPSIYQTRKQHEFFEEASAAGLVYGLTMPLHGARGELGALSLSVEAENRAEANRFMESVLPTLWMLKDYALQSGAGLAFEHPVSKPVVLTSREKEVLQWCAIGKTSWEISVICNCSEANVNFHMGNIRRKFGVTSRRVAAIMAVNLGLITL
# [8] = tested on: Pseudomonas aeruginosa; assay: Binding affinity to Pseudomonas aeruginosa LasR Y56F mutant expressed in Escherichia coli at 100 uM measured after 6 hrs by luminescence assay; conditions: filed as activator
# [9] = tested on: Pseudomonas aeruginosa; assay: Binding affinity to Pseudomonas aeruginosa LasR W60F mutant expressed in Escherichia coli at 100 uM measured after 6 hrs by luminescence assay; conditions: filed as activator
# [10] = tested on: Pseudomonas aeruginosa; assay: Binding affinity to Pseudomonas aeruginosa LasR D73N mutant expressed in Escherichia coli at 100 uM measured after 6 hrs by luminescence assay; conditions: filed as activator
Structure (SMILES),fold change (FC) [1],Activity [2],Activity [3],further results
CCCCCCCCCC(=O)CC(=O)N[C@H]1CCOC1=O,–,0.05,-0.07,–
C=CCCCC[C@@H](C)C(=O)NCCCC[C@H]1C(OC)=CC(=O)N1C(=O)[C@H](C)CCCCC=C,–,0.31,0.08,Activity [4]: Active
CCCCCC[C@@H](C)C(=O)NCCCC[C@H]1C(OC)=CC(=O)N1C(=O)[C@H](C)CCCCCC,–,0.31,0.23,–
C#CCCCC[C@@H](C)C(=O)NCCCC[C@@H]1NC(=O)C=C1OC,–,0.02,0,Activity [1]: inactive
C#CCCCC[C@@H](C)C(=O)NCCCC[C@H]1C(OC)=CC(=O)N1C(=O)[C@H](C)CCCCC#C,3,0.08,0.01,Activity [5]: Active; Activity [7]: Active; Activity [8]: Active; Activity [9]: Active; Activity [10]: Active

# More lines, main results first:
fold change (FC) [1],Structure (SMILES),Activity [2],Activity [3],further results
4,C=CCCCC[C@@H](C)C(=O)N1C(=O)C=C(OC)[C@@H]1CCCCNC(=O)OC(C)(C)C,0.06,0.02,–
3,C#CCCCC[C@@H](C)C(=O)N1C(=O)C=C(OC)[C@@H]1CCCCNC(=O)OC(C)(C)C,0.18,0.05,Activity [5]: Active
5,CCCCCC[C@@H](C)C(=O)N1C(=O)C=C(OC)[C@@H]1CCCCNC(=O)OC(C)(C)C,0.26,0.14,Activity [6]: Active
